Measured values: patent publication US11324799B2, “Gap junction intercellular communication modulators and their use for the treatment of diabetic eye disease” (ZEALAND PHARMA A/S, priority 2017, dated 2022)

How the values were obtained:
[1] = tested on: Rat retinal endothelial cells (RRECs); assay: Scrape load dye transfer (SLDT) assay of GJIC; format: cell-based; details: HG (30 mM) medium, 100 nM, 3, 5 and 7 days
Description: (§1) Rat retinal endothelial cells (RRECs) were grown for 3, 5, and 7 days in normal (N; 5 mM) or HG (30 mM) medium; in parallel, cells grown in HG medium were exposed for 3, 5, and 7 days to 100 nM Danegaptide (DG), an AAP10 analogue, which stabilizes Cx43 mediated cell coupling. In addition, cells grown in N medium were treated with a Cx43 blocker (negative control) which inhibits GJ coupling, or a positive control AAP10, protecting GJIC. To determine GJIC, scrape load dye transfer (SLDT) assay was performed at the three time points. Similarly, cells were assessed for apoptosis and cell monolayer permeability by differential dye staining assay and in vitro permeability assay, respectively.

[2] = tested on: Rat retinal endothelial cells (RRECs); assay: In vitro cell monolayer permeability assay; format: cell-based; details: HG (30 mM) medium, 100 nM
Description: as §1

[3] = tested on: streptozotocin (STZ)-induced diabetic rats; assay: Pilot study, 6 weeks of diabetes: AC and PL in retinal trypsin digests after intravitreal injection; format: in vivo, rat; details: n=3
Description: All animal studies were performed according to the ARVO Statement for the Use of Animals in Ophthalmic and Vision Research. In the pilot study to determine the optimal concentration of danegaptide, twelve Sprague-Dawley male rats, each weighing 200 g, were used. Nine of the twelve rats were injected intraperitoneally with streptozotocin (STZ) (55 mg/kg body weight) to induce diabetes for 6 weeks. The remaining 3 animals served as non-diabetic controls. After 6 weeks of diabetes, the animals were killed and retinas were isolated. In the follow-up study to determine the effect of 1000 nM danegaptide on the number of AC and PL, thirty-six Sprague-Dawley male rats, each weighing 200 g, were used. Thirty of the thirty-six rats were injected with STZ to induce diabetes for 15 weeks. The remaining six animals served as non-diabetic controls. […] Blood glucose levels were measured in each animal 2-3 times weekly and at the time of death. […]
RTDs were stained with periodic acid-Schiff and hematoxylin as described in Bobbie et al. (Reduced connexin 43 expression and its effect on the development of vascular lesions in retinas of diabetic mice. Investigative ophthalmology & visual science 2010; 51:3758-3763). Ten representative fields were imaged using a digital camera attached to a microscope and the images were analyzed for AC and PL. […]

diabetic rats = assay: In vivo permeability (IVP): extravasation of FITC-dextran in retinal capillaries; parameters: species or system rat; details: for vascular leakage (FIG. 3): diabetic rat retinas; for vascular leakage: 15 weeks
Description: To determine if improvement in Cx43-mediated gap junction intercellular communication (GJIC) prevents retinal vascular cell death and excess retinal vascular permeability, danegaptide was administered intravitreally or via osmotic pumps in rats. 60 male Sprague Dawley rats were randomly assigned into six groups, each consisting of 10 rats: non-diabetic rats, diabetic rats, diabetic rats intravitreally injected with DG (1000 nM concentration), diabetic rats intravitreally injected with sterile water as vehicle, diabetic rats treated systemically with DG (70 mg/mL to achieve 100 nM plasma DG concentration) via osmotic pumps, and diabetic rats treated systemically via osmotic pump with sterile water as control. Diabetes was induced for 15 weeks and at the end of the study all animals were examined and subsequently sacrificed and their retinas were examined for (i) in vivo permeability (IVP), (ii) RTD, and (iii) optical coherence tomography (OCT) for analyses of vascular leakage, AC and PL, and retinal thickness, respectively.
To determine the effect of improved cell-cell coupling on retinal vascular permeability under hyperglycemic stress, extravasation of FITC-dextran was assessed in the retinal capillaries following FITC-dextran tail vein injection performed shortly before animals were sacrificed.

[4] = tested on: Rat retinal endothelial cells (RRECs); assay: Apoptosis by differential dye staining assay; format: cell-based; details: HG (30 mM) medium, 100 nM, 3, 5 and 7 days
Description: as §1

[5] = tested on: Primary retinal endothelial cells from rats; assay: Transcriptomic effects in an in vitro diabetic retinopathy model; format: cell-based, rat; details: HG medium
Description: The transcriptomic effects of danegaptide in an in vitro diabetic retinopathy model were investigated to 1) reveal transcriptomic changes in diabetic-like conditions with or without danegaptide and 2) associate functional effects previously observed to transcriptomic modifications and 3) identify pathways involved in danegaptide effects on relevant cells under diabetes-like conditions. Primary retinal endothelial cells from rats were plated for in vitro experiments under four experiments conditions, Normal Glucose medium (NG), High Glucose medium (HG), High Glucose medium+Danegaptide 100 nM (HG_DG100) and High Glucose medium+Danegaptide 1000 nM (HG_DG1000). The samples were assessed at four time points (4 hours after plating, 1 day after plating, 3 days after plating and 5 days after plating).

[6] = tested on: streptozotocin (STZ)-induced diabetic rats; assay: Follow-up study, 15 weeks of diabetes: AC and PL in retinal trypsin digests, intravitreal or osmotic pump delivery; format: in vivo, rat; details: for number of PL / development of AC: diabetic rats, 15 weeks; for number of AC (FIG. 2) / number of PL (FIG. 2): diabetic rat retinas
Description: All animal studies were performed according to the ARVO Statement for the Use of Animals in Ophthalmic and Vision Research. In the pilot study to determine the optimal concentration of danegaptide, twelve Sprague-Dawley male rats, each weighing 200 g, were used. Nine of the twelve rats were injected intraperitoneally with streptozotocin (STZ) (55 mg/kg body weight) to induce diabetes for 6 weeks. The remaining 3 animals served as non-diabetic controls. After 6 weeks of diabetes, the animals were killed and retinas were isolated. In the follow-up study to determine the effect of 1000 nM danegaptide on the number of AC and PL, thirty-six Sprague-Dawley male rats, each weighing 200 g, were used. Thirty of the thirty-six rats were injected with STZ to induce diabetes for 15 weeks. The remaining six animals served as non-diabetic controls. After 15 weeks of diabetes, the animals were killed and retinas were isolated. The glucose concentration in blood and urine were checked after 2 or 3 days after STZ injection to confirm diabetes status in the animals. Blood glucose levels were measured in each animal 2-3 times weekly and at the time of death. The diabetic group represented rats with blood glucose levels of >350 mg/dL. The diabetic rats received NPH insulin injection as needed to maintain blood glucose levels.
The enucleated eyes were placed in 10% formalin for at least 24 hrs. The eyes were then cut in half with a razor blade, and the retinas were isolated and placed into 0.5M glycine for 24-48 hrs. RTD was performed as described in Kuwabara & Cogan (Studies of retinal vascular patterns. I. Normal architecture. Archives of ophthalmology 1960; 64:904-911). Each retina went through a series of washes with 3% trypsin, and the non-vascular mass of the retina was removed. The retinal capillary network was then isolated and mounted onto a silane-coated slide.
RTDs were stained with periodic acid-Schiff and hematoxylin as described in Bobbie et al. (Reduced connexin 43 expression and its effect on the development of vascular lesions in retinas of diabetic mice. Investigative ophthalmology & visual science 2010; 51:3758-3763). Ten representative fields were imaged using a digital camera attached to a microscope and the images were analyzed for AC and PL. Apoptotic pericytes were identified as PL based on prominent histological characteristics, including basement membrane protrusion as empty shell. Capillaries devoid of both pericytes and endothelial cells were considered as AC.
To determine the optimal concentration of danegaptide (DG), a Cx43 gap junction coupler, two concentrations (200 nM or 1000 nM) were tested via intravitreal injections in streptozotocin (STZ)-induced diabetic rats. Diabetes was induced via STZ for 6 weeks and at the end of the study, eyes were enucleated, and retinas subjected to retinal trypsin digestion (RTD) for isolation of capillary networks and stained with Hematoxylin and Periodic Acid Schiff's (PAS) reagent to analyze the number of acellular capillaries (AC) and pericyte loss (PL). Based on this pilot study, 1000 nM danegaptide was injected intravitreally in the follow-up study to determine the effect of improved cell coupling on retinal vascular cell death. Additionally, danegaptide was administered systemically using osmotic pumps. The number of rats used in this study was at least 6 per group. Overall, rats were divided into 6 groups: wild type (WT) control rats, STZ-induced diabetic rats, diabetic rats intravitreally injected with danegaptide, diabetic rats intravitreally injected with water, diabetic rats systemically delivered with danegaptide, and diabetic rats systemically delivered with water. Diabetes was induced via STZ for 15 weeks and at the end of the study, retinas were isolated and subjected to RTD for analyses of AC and PL. […]

[7] = osmotic pumps (OP) vs water via OP
[8] = intravitreal (IV) injection vs IV injection of water

NCC(=O)N1C[C@H](NC(=O)c2ccccc2)C[C@H]1C(=O)O [danegaptide, (2S,4R)-1-(2-aminoacetyl)-4-benzoylamino-pyrrolidine-2-carboxylic acid]
GJIC (SLDT assay) [1]: preserved GJIC
cell monolayer permeability [2]: significantly decreased by day 5
number of PL (pericyte loss) ([3]; intravitreal injection 1000 nM, vs untreated diabetic rat retinas): significantly reduced
number of AC (acellular capillaries) ([3]; intravitreal injection 200 or 1000 nM): decreased in the danegaptide treated groups but fell short of statistical significance
vascular leakage (FIG. 3) (diabetic rats; IV injection vs IV injection of water): significantly reduced
difference in vascular leakage between intravitreal and systemic treatment (diabetic rats; diabetic rats): no significant difference
vascular leakage (diabetic rats; intravitreal DG 1000 nM, diabetic rats): 149±22 % of control
vascular leakage (FIG. 3) (diabetic rats; [7]): significantly reduced
vascular leakage (diabetic rats; systemic DG via osmotic pump (100 nM plasma target), diabetic rats): 143±14 % of control
HG-induced apoptosis [4]: rescued cells from HG-induced apoptosis at all three time points
Fscn3 expression (downregulated in HG versus NG) [5]: reverse by danegaptide
expression of genes differentially expressed in high glucose vs normal glucose ([5]; 100 or 1000 nM, 4 h and 1 d): reverses expression of some genes
Tpcn2 expression (downregulated in HG versus NG) ([5]; 4 h): reversed by danegaptide
Cacybp expression (downregulated in HG versus NG) ([5]; 1 d): reversed by danegaptide
expression of transcripts Dnm1I, Nucb2, Trmt10a (down-regulated under HG) ([5]; day 1): generally increased the expression
number of PL ([6]; intravitreal 1000 nM): 112±62 % of control
number of AC (FIG. 2) [6, 8]: significantly reduced
number of PL (FIG. 2) [6, 8]: significantly reduced
development of AC ([6]; intravitreal injections 1000 nM): 134±28 % of control
number of AC (FIG. 2) [6, 7]: significantly reduced
number of PL (FIG. 2) [6, 7]: significantly reduced
development of AC ([6]; systemic (osmotic pump)): 133±37 % of control
number of PL ([6]; systemic (osmotic pump)): 103±65 % of control
